# In patent US3949075A, “Anti-microbial compounds of 2', 4' substituted anilides of substituted nitrosalicylic acid for quadruped animals” (Ferro Corporation, priority 1974, dated 1976):
# Read-outs that look alike come from different tables or passages of the source.
# Legend:
# [1] = test system: Haemonchus contortus; assay: Percent of Haemonchus destroyed or expelled in infected sheep (egg count after treatment); format: in vivo, Haemonchus contortus (in sheep); conditions: for inhibition in vivo at 15 mg/kg / inhibition in vivo at 2 mg/kg / inhibition in vivo at 5 mg/kg: Haemonchus contortus; for Effectiveness at 15 mg/kg against Haemonchus: Table VI
# Description: Two groups of sheep were used in the tests. One group was used as a non-medicated control, while the other group was treated with the compound under investigation. Helminth-free young lambs were infected with about 10,000 filariform larvae of Haemonchus contortus. In three weeks when the infection became apparent, egg counts were made to determine the density of the worm burden.
# The egg count was carried out using the following modified Stoll method. Three grams of sheep feces were taken rectally from each animal and placed in a Stoll flask. To each flask, tap water was added to the top line. The fecal pellets were too hard to break down, the flasks were closed with rubber stoppers and kept in the refrigerator for several hours. The flasks were thoroughly shaken and a 1 ml. sample was drawn from the middle using a wide mouth pipette. This 1 ml. sample was transferred to an 8 ml. plastic tube, to which enough saturated sodium chloride solution was added to reach the rim. The tubes were then centrifuged for 10 minutes at 1500 r.p.m. Then sodium chloride solution was added with a medicine dropper forming a concave miniscus. A cover glass was carefully added and the tubes were kept in a refrigerator for ten to twenty minutes. During that period, the nematode ova flowed upward and adhered to the bottom of the cover glass slip. At the end of the 20-minute period, the cover slip was carefully detached from the miniscus and transferred to a microscopic slide. The ova were then counted under a microscope equipped with 10X ocular and 10X objective lens. Each ovum under the microscope represented 20 ova in the sample.
# Animals with sufficiently high egg counts were taken out of the pool and housed in experimental pens. Since the salicylanilides of the present invention are water insoluble, the compounds were first ground using a mortar and pestle and then were placed in a carboxymethyl cellulose solution. The particles were further micronized ultrasonically. The compound was then administered to two or three animals by Oesophageal gavage. Control, untreated animals, received only the carboxymethyl cellulose solution in a similar manner. On the sixth and seventh day after treatment, fecal pellets were taken from the rectum of the control as well as the treated animals and egg counts were made.
# (§1) The results of tests on sheep in a manner described, supra, using compounds of the present invention are given in Table 1, Examples 5 through 13. The numbers in the column headed "Haemonchus (15 mg/kg)" refer to the percent of parasites destroyed or expelled when the indicated compound was introduced into the rumen of sheep at a dosage of 15 milligrams per kilogram of body weight. The values under "Tolerance (mg/kg)" refer to the highest test dosage in the milligrams of anthelmintic per kilogram of body weight at which the sheep developed no toxic symptoms. "Tol." is an abbreviation for "tolerated". The symbols R1 and R2 refer to those of Formula I in these and other following examples.
# (§2) The data of the tables were generated using procedures previously described. The compounds tested are disubstituted and, except for Example 50 which is dibromo, are dichloro. Where the position for the substituents is other than 2' and 4', it is indicated. Under the indicated microorganisms, the values given in this and the following tables, should be read as: percentage of microorganism killed/dose in milligrams per kilogram of body weight. Under "Tolerance", the term "Tol." means "tolerated", "Tox." means "toxic", and "Sym." means "symptoms of toxic reaction", all at the dosage value which follows. It will be appreciated that there is no sharp toxicity end point in determining toxicity to living sheep.
# [2] = test system: sheep; assay: Tolerance / toxicity in sheep; format: in vivo; set-up: key to Tolerance at 100 mg/kg / Tolerance at 50 mg/kg: "toxic" refers to death of sheep resulting from the use of the indicated compound at the indicated dosage; key to Tolerance: Tol.: tolerated; Tox.: toxic; Sym.: symptoms of toxic reaction
# Description: as §1
# The importance of the 2',4' substitution on the anilide moiety of Formula I is illustrated by the case of the dichloro substitution as summarized in Table III. […] This has been mentioned briefly hereinabove. As used herein, "toxic" refers to death of sheep resulting from the use of the indicated compound at the indicated dosage.
# as §2
# [3] = test system: Fasciola hepatica; assay: Test for activity against liver flukes, Fasciola hepatica, in infected sheep; format: in vivo; conditions: Fasciola hepatica, read-out: Fasciola hepatica, percentage of microorganism killed
# Description: Test for activity against liver flukes were conducted as follows:
# Eggs of Fasciola hepatica were collected from the bile of donor sheep. The eggs were embryonated and snails were infected (the genus Lymnaea serves as intermediate host) to produce Metacercariae which are the infective forms for sheep. Each sheep was infected with 250 metacercariae intraruminally. When the infection became patent in ca. 80 days, egg counts were carried out to determine the degree of worm burden. The liver was processed to recover F. hepatica in the untreated and treated sheep.
# as §2
# [4] = sheep, intrarumenal, 15 mg/kg, Table II, read-out: Effectiveness in removal of Haemonchus
# [5] = iv, sheep, 15 mg/kg, Tables III and IV, read-out: Effectiveness (%) at 15 mg/kg
# [6] = sheep, 15 mg/kg, Tables VIII-XI, read-out: Haemonchus, percentage of microorganism killed
# [7] = sheep, 5 mg/kg, Tables VIII-XI, read-out: Haemonchus, percentage of microorganism killed
# [8] = sheep, 15 mg/kg, Tables VIII-XI
# [9] = sheep, 15 mg/kg, Table V, read-out: Effectiveness at 15 mg/kg against Haemonchus
# [10] = read-out: Effectiveness at 15 mg/kg against Haemonchus, sheep, 15 mg/kg, Table V
structure (smiles),measurement,setting,value
CCOC(=O)c1ccc(NC(=O)c2c(C)c([N+](=O)[O-])cc(C(C)(C)C)c2O)cc1 [Example 20],inhibition in vivo at 15 mg/kg,[1]; [4],18%
Cc1cccc(Cl)c1NC(=O)c1c(C)c([N+](=O)[O-])cc(C(C)(C)C)c1O [Example 30],inhibition in vivo at 15 mg/kg,[1]; [5],0%
same,inhibition in vivo at 15 mg/kg,[1]; [6],0%
same,"effectiveness against the parasites, in words",[1]; sheep,ineffective
Cc1cc(NC(=O)c2c(C)c([N+](=O)[O-])cc(C(C)(C)C)c2O)c(C)cc1Cl [Example 39],Effectiveness at 15 mg/kg against Haemonchus,"[1]; sheep, 15 mg/kg",0%
Cc1cc(I)ccc1NC(=O)c1c(C)c([N+](=O)[O-])cc(C(C)(C)C)c1O [Example 66],inhibition in vivo at 2 mg/kg,"[1]; sheep, 2 mg/kg, Tables VIII-XI, read-out: Haemonchus, percentage of microorganism killed",13%
same,inhibition in vivo at 5 mg/kg,[1]; [7],88%
same,Tolerance,"[2]; 50 mg./kg., Tables VIII-X",Sym.
same,inhibition in vivo at 5 mg/kg,"[3]; sheep, Tables VIII-XI",100%
same,inhibition in vivo at 15 mg/kg,[3]; [8],100%
Cc1c([N+](=O)[O-])cc(C(C)(C)C)c(O)c1C(=O)Nc1ccccc1F [Example 15],inhibition in vivo at 15 mg/kg,[1]; [4],0%
Cc1c([N+](=O)[O-])cc(C(C)(C)C)c(O)c1C(=O)Nc1cc(Cl)cc(Cl)c1 [Example 26],inhibition in vivo at 15 mg/kg,[1]; [5],67%
same,inhibition in vivo at 15 mg/kg,[1]; [6],67%
same,"effectiveness against the parasites, in words",[1]; sheep,too low to be useful
same,Tolerance,"[2]; 40 mg./kg., Table VIII",Tol.
same,inhibition in vivo at 15 mg/kg,[3],100%
Cc1c([N+](=O)[O-])cc(C(C)(C)C)c(O)c1C(=O)Nc1ccccc1Br [Example 17],inhibition in vivo at 15 mg/kg,[1]; [9],0%
same,inhibition in vivo at 15 mg/kg,[1]; [6],0%
same,inhibition in vivo at 15 mg/kg,[1]; [4],0%
Cc1ccc(NC(=O)c2c(C)c([N+](=O)[O-])cc(C(C)(C)C)c2O)c(Cl)c1 [Example 71],inhibition in vivo at 15 mg/kg,[1]; [6],62%
Cc1c([N+](=O)[O-])cc(C(C)(C)C)c(O)c1C(=O)Nc1ccccc1I [Example 18],inhibition in vivo at 15 mg/kg,[1]; [10],0%
same,inhibition in vivo at 15 mg/kg,[1]; [6],0%
same,inhibition in vivo at 15 mg/kg,[1]; [4],0%
Cc1ccc(Cl)cc1NC(=O)c1c(C)c([N+](=O)[O-])cc(C(C)(C)C)c1O [Example 29],inhibition in vivo at 15 mg/kg,[1]; [5],0%
same,inhibition in vivo at 15 mg/kg,[1]; [6],0%
same,"effectiveness against the parasites, in words",[1]; sheep,ineffective
Cc1c([N+](=O)[O-])cc(C(C)(C)C)c(O)c1C(=O)Nc1cccc(C(F)(F)F)c1 [34 CF3 3'-substitution],inhibition in vivo at 15 mg/kg,[1]; [9],2%
same,inhibition in vivo at 15 mg/kg,[1]; [6],2%
COc1cc(Cl)ccc1NC(=O)c1c(C)c([N+](=O)[O-])cc(C(C)(C)C)c1O [Example 22],inhibition in vivo at 15 mg/kg,[1]; [4],10%
Cc1c([N+](=O)[O-])cc(C(C)(C)C)c(O)c1C(=O)Nc1ccc(Br)cc1Br [Example 50],inhibition in vivo at 5 mg/kg,[1]; [7],99.8%
same,inhibition in vivo at 5 mg/kg,"[3]; sheep, Tables VIII-XI",100%
Cc1c([N+](=O)[O-])cc(C(C)(C)C)c(O)c1C(=O)Nc1cccc(Cl)c1Cl [Example 60],inhibition in vivo at 15 mg/kg,[1]; [6],14%
Cc1c([N+](=O)[O-])cc(C(C)(C)C)c(O)c1C(=O)Nc1ccc(Cl)c(Cl)c1 [Example 25],inhibition in vivo at 15 mg/kg,[1]; [5],100%
same,inhibition in vivo at 5 mg/kg,[1]; [7],20%
same,inhibition in vivo at 15 mg/kg,[1]; [6],100%
same,Effectiveness (%) at 5 mg/kg,"[1]; sheep, 5 mg/kg, Tables III and IV",20%
same,Tolerance,"[2]; 15 mg./kg., Tables VIII, X",Tox.
same,Tolerance,"[2]; 50 mg./kg., Tables VIII-X",Tox.
same,Tolerance at 50 mg/kg,"[2]; 50 mg/kg, Tables III and IV",toxic
same,inhibition in vivo at 2 mg/kg,"[3]; sheep, 2 mg/kg, Tables VIII-XI",0%
same,inhibition in vivo at 5 mg/kg,"[3]; sheep, Tables VIII-XI",95%
same,inhibition in vivo at 15 mg/kg,[3]; [8],100%
Cc1cc(Br)ccc1NC(=O)c1c(C)c([N+](=O)[O-])cc(C(C)(C)C)c1O [Example 64],inhibition in vivo at 2 mg/kg,"[1]; read-out: Haemonchus, percentage of microorganism killed, sheep, 2 mg/kg, Tables VIII-XI",38%
same,inhibition in vivo at 5 mg/kg,[1]; [7],100%
same,Tolerance,"[2]; 50 mg./kg., Tables VIII-X",Tox.
same,Tolerance,"[2]; 50 mg./kg., Tables VIII-X, listed as 65",Sym.
same,inhibition in vivo at 5 mg/kg,"[3]; sheep, Tables VIII-XI",100%
Cc1c([N+](=O)[O-])cc(C(C)(C)C)c(O)c1C(=O)Nc1ccc(S(N)(=O)=O)cc1 [Example 19],inhibition in vivo at 15 mg/kg,[1]; [4],0%
Cc1ccc(NC(=O)c2c(C)c([N+](=O)[O-])cc(C(C)(C)C)c2O)cc1Cl [Example 72],inhibition in vivo at 5 mg/kg,[1]; [7],0%
same,inhibition in vivo at 15 mg/kg,[1]; [6],80%
Cc1c([N+](=O)[O-])cc(C(C)(C)C)c(O)c1C(=O)Nc1ccccc1C(F)(F)F [Example 14],inhibition in vivo at 15 mg/kg,[1]; [9],0%
same,inhibition in vivo at 15 mg/kg,[1]; [6],0%
same,inhibition in vivo at 15 mg/kg,[1]; [4],0%
Cc1c([N+](=O)[O-])cc(C(C)(C)C)c(O)c1C(=O)Nc1cccc(I)c1 [33 I 3'-substitution],inhibition in vivo at 15 mg/kg,[1]; [10],0%
same,inhibition in vivo at 15 mg/kg,[1]; [6],14%
Cc1c([N+](=O)[O-])cc(C(C)(C)C)c(O)c1C(=O)Nc1cc(Cl)c(Cl)cc1Cl [Example 36],Toxicity (printed in the column Effectiveness at 15 mg/kg against Haemonchus),"[2]; 15 mg/kg, Table VI",Toxic
Cc1ccc(NC(=O)c2c(C)c([N+](=O)[O-])cc(C(C)(C)C)c2O)c(C)c1 [Example 21],inhibition in vivo at 15 mg/kg,[1]; [4],13%
Cc1c([N+](=O)[O-])cc(C(C)(C)C)c(O)c1C(=O)Nc1ccc(I)cc1 [Example 9],inhibition in vivo at 15 mg/kg,[1]; [10],93%
same,inhibition in vivo at 5 mg/kg,[1]; [7],22%
same,inhibition in vivo at 15 mg/kg,[1]; [6],93%
same,"Haemonchus (2 mg/kg), percent of parasites destroyed or expelled","[1]; sheep, into rumen, 2 mg/kg, Table 1",14%
same,"Haemonchus (5 mg/kg), percent of parasites destroyed or expelled","[1]; sheep, into rumen, 5 mg/kg, Table 1",22%
same,"Haemonchus (15 mg/kg), percent of parasites destroyed or expelled","[1]; sheep, into rumen, 15 mg/kg, Table 1",93%
same,inhibition in vivo at 15 mg/kg,[3]; [8],0%
Cc1c([N+](=O)[O-])cc(C(C)(C)C)c(O)c1C(=O)Nc1ccccc1Cl [Example 16],inhibition in vivo at 15 mg/kg,[1]; [9],33%
same,inhibition in vivo at 15 mg/kg,[1]; [6],33%
same,inhibition in vivo at 15 mg/kg,[1]; [4],33%
Cc1c([N+](=O)[O-])cc(C(C)(C)C)c(O)c1C(=O)Nc1c(Cl)cc(Cl)cc1Cl [Example 37],Effectiveness at 15 mg/kg against Haemonchus,"[1]; sheep, 15 mg/kg",73%
Cc1c([N+](=O)[O-])cc(C(C)(C)C)c(O)c1C(=O)Nc1cccc(Cl)c1 [31 Cl 3'-substitution],inhibition in vivo at 15 mg/kg,[1]; [9],0%
same,inhibition in vivo at 15 mg/kg,[1]; [6],0%
